According to ChEMBL document CHEMBL1152962 (Bioorg Med Chem, 2009):
pIC50: −log10 of the molar value.

Assays:
Tyrosinase [1] = target: T1, Tyrosinase (Agaricus bisporus, UniProt O42713)
T1 sequence (O42713 whole entry): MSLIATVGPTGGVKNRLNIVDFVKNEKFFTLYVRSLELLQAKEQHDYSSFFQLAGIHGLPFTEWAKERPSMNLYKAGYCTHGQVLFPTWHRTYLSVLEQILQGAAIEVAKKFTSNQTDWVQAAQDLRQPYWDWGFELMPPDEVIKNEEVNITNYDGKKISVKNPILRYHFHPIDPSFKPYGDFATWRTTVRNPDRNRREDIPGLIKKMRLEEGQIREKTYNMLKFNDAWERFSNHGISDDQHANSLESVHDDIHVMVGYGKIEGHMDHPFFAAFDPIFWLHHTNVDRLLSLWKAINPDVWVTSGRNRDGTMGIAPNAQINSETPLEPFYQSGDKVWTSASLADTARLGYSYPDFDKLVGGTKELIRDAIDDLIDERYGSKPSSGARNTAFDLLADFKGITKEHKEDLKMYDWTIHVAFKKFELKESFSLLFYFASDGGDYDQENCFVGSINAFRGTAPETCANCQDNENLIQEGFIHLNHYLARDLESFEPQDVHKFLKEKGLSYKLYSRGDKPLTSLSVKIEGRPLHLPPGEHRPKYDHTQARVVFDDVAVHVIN
Description: Inhibition of mushroom tyrosinase activity after 150 mins by spectrophotometry

[2] = Ratio of Trolox IC50 to compound IC50 for FeCl2-induced lipid peroxidation; type: physicochemical
[3] = test system: Radical scavenging activity
Description: Antioxidant activity assessed as DPPH radical scavenging activity incubated at 40 degC in dark after 30 mins

Tyrosinase [4] = target: T1, Tyrosinase; remark: listed apart in the source
Description: Inhibition of mushroom tyrosinase activity after 30 mins by spectrophotometry

Tyrosinase [5] = target: T1, Tyrosinase; remark: listed apart in the source
Description: Inhibition of mushroom tyrosinase activity after 90 mins by spectrophotometry

[6] = Ratio of Trolox IC50 to compound IC50 for ABTS radical scavenging activity
[7] = Ratio of Trolox IC50 to compound IC50 for DPPH radical scavenging activity

Structure (SMILES) | pIC50 (Tyrosinase [1]) | pIC50 [3] | pIC50 (Tyrosinase [4]) | pIC50 (Tyrosinase [5]) | Ratio IC50 [2] | Ratio IC50 [6] | Ratio IC50 [7]
COc1ccc(CC(=O)c2ccc(O)c(O)c2O)cc1OC | 3.85 | 5.36 | 3.64 | 3.88 | 5 | – | –
O=C(Cc1ccc(O)cc1)c1c(O)cc(O)cc1O | 3.58 | 4.64 | < 3.52 | < 3.52 | – | – | –
O=C(Cc1ccccc1)c1c(O)cc(O)cc1O | – | 4.91 | – | – | – | – | –
O=C(Cc1ccc(O)cc1)c1ccc(O)c(O)c1O | < 3.30 | 5.24 | < 3.52 | < 3.52 | – | 10 | –
COc1ccc(CC(=O)c2c(O)cc(O)cc2O)cc1 | 3.64 | 4.96 | 4.15 | 3.67 | – | – | –
COc1cc(O)c(C(=O)Cc2ccccc2)cc1O | – | 4.69 | – | – | – | – | –
Cc1c(C)c2c(c(C)c1O)CCC(C)(C(=O)O)O2 (stereo not given) [TROLOX] | – | 5.04 | – | – | – | – | –
COc1ccc(CC(=O)c2cc(O)c(C)c(C)c2O)cc1 | – | 4.66 | – | – | – | – | –

The remaining compounds from weak to strong by pIC50 [3], led by results:

pIC50 (Tyrosinase [1]) | pIC50 [3] | pIC50 (Tyrosinase [4]) | pIC50 (Tyrosinase [5]) | Structure (SMILES) | Ratio IC50 [2] | Ratio IC50 [6] | Ratio IC50 [7]
3.75 | 4.12 | < 3.52 | 3.77 | COc1ccc(CC(=O)c2ccc(O)c(O)c2)cc1 | – | – | –
– | 4.13 | – | – | O=C1O[C@H]([C@@H](O)CO)C(O)=C1O [ASCORBIC ACID] | – | – | –
3.74 | 4.24 | 4.10 | 3.79 | COc1ccc(CC(=O)c2ccc(O)cc2O)cc1 [ONONETIN] | – | – | –
3.62 | 4.45 | 3.95 | 3.68 | COc1ccc(CC(=O)c2ccc(O)cc2O)cc1OC | – | – | –
4.34 | 4.59 | 4.36 | 4.37 | COc1ccc(C(=O)Cc2ccc(O)cc2)c(O)c1O | – | – | –
3.76 | 4.60 | 3.75 | 3.87 | O=C(Cc1ccc(O)cc1)c1ccc(O)cc1O | – | – | –
3.67 | 4.66 | < 3.52 | 3.69 | COc1ccc(CC(=O)c2ccc(O)c(O)c2O)cc1 | – | – | –
3.70 | 4.67 | 4.07 | 3.84 | COc1ccc(CC(=O)c2cc(O)c(O)cc2O)cc1 | – | – | –
– | 5.60 | – | – | COc1ccc(CC(=O)c2ccc(O)c(O)c2)cc1OC | – | – | –
– | 5.87 | – | – | COc1ccc(CC(=O)c2c(O)cc(O)cc2O)cc1OC | – | – | –
– | 6.16 | – | – | O=C(Cc1ccc(O)cc1)c1cc(O)c(O)cc1O | – | – | 13
